Test results from PMC9428149, “Tackling recalcitrant Pseudomonas aeruginosa infections in critical illness via anti-virulence monotherapy” (Nature Communications, 2022).
Values joined by “and” are separate entries in the source; they are usually repeats but may differ in a detail not shown here. Identical values can stand only once. “Also recorded” adds a separate entry of the source. Like-named read-outs stand apart in the source and are kept apart here.

Assays:
TNF-α = test: Ileal TNF-α ELISA; type: in vivo, mouse; details: burn + PA14 + D88, 22 h
Description: (§1) For the group supplemented with our MvfR-inhibiting compound (D88), mice received five subcutaneous injections (at the nape of the animals) at 1, 4, 8, 12, and 18 h post-BI, at a dose of 24 mg kg^−1 body weight. D88 was prepared in a 40% Captisol vehicle. Control groups received equivalent doses of 40% Captisol vehicle.
(§2) Distal ileal TNF-α and IL-6 were quantified using the mouse TNF-α enzyme-linked immunosorbent assay [ELISA] Ready-SET-Go kit (eBioscience; San Diego, CA, USA) and the Mouse IL-6 DuoSet ELISA (R&D Systems) respectively, as per the manufacturer’s instructions.

[1] = biological target: MvfR binding to the pqsA promoter (Pseudomonas aeruginosa, UniProt Q9I4X0); type: cell-based; details: for MvfR binding to the pqsA promoter (ChIP-qPCR): D88 +, Figure 5c, replicates
MvfR binding to the pqsA promoter, sequence (Q9I4X0 whole entry, looked up): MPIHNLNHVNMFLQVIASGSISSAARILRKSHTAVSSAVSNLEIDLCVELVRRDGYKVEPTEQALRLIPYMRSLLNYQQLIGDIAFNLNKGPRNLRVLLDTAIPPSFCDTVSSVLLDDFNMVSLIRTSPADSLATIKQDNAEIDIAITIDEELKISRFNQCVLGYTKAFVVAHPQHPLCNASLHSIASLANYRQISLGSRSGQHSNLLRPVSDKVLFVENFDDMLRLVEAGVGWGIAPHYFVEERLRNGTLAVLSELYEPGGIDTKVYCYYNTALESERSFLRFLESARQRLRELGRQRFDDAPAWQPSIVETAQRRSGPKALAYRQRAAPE

PA14 burn-site infection [2] = test: In vivo intestinal permeability (FITC-dextran) in burn-site infection model; parameters: species or system mouse
PA14 burn-site infection [3] = test: Bacterial dissemination and load (CFU) in burn-site infection model; type: in vivo, mouse
IL-6 = test: Ileal IL-6 ELISA; type: in vivo, mouse; details: burn + PA14 + D88, 22 h
Description: as §1, §2

[4] = system: MvfR-regulated small molecules at the site of infection; test: Production of HHQ, PQS, HQNO, 2-AA and DHQ in vivo; parameters: species or system mouse
Description: as §1
To measure the production of HHQ, PQS, HQNO, 2-AA, and DHQ in vivo, underlying muscle from the site of infection was collected at 12 h and 22 h post-infection, and the small molecules were extracted by homogenizing them immediately in 1 mL sterile PBS as above. A 500 μL of sample was mixed with an equal volume of methanol containing 10 ppm of HHQ-D4 and 20 ppm of PQS-D4, spun down for 5 min, and 700 μL of supernatant were put in glass vials. Liquid chromatography-mass spectrophotometry ([…]) analysis was performed as described above and in[66].

RAW 264.7 cells = test: MTT cytotoxicity, RAW 264.7; type: cell-based, mouse; details: for Cell viability (MTT) relative to Vehicle: RAW 264.7, replicates
Description: (§3) For the determination of cytotoxicity, cell viability was determined using the MTT (3-[4, 5-dimethyl-2-thiazolyl]−2, 5-diphenyl-2H-tetrazolium bromide) assay in the presence and absence of compound (D88). […] The cells were then treated with either vehicle or different concentrations of D88 (10, 20, 30, 40, and 50 µM) for 24 h at 37 °C and 5% CO2. After 24 h, the cells were washed three times with PBS and were incubated in 200 μL PBS containing 200 μg mL^−1 MTT (Sigma-Aldrich) in a 96-well culture plate for 2 h at 37 °C and 5% CO2. Following incubation, the supernatant was discarded, and the cells were lysed in 95% isopropanol and 5% formic acid.

claudin-1 = test: Tight junction claudin-1 immunofluorescence, distal ileum; type: in vivo, mouse;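 as to Claudin-1 immunofluorescence quantification (Supplimentary Figure 9): fluorescence intensity in arbitrary units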
Description: as §1
Samples of distal ileum fixed with 4% paraformaldehyde were cut in sections and mounted on microscope slides. After deparaffinization and antigen retrieval (Antigen Retrieval reagent; R&D Systems, Minneapolis, MN, USA), tissue sections were immersed in PBS/0.1 tween for 10 min and were blocked by Normal Goat Serum. They were then incubated with primary antibody rabbit polyclonal anti-claudin-1 (Catalog# 71-7800; final concentration, 1:100; Invitrogen, Rockford, IL, USA) overnight in a humid chamber at 4 °C. The sections were washed three times with PBS and secondary antibody goat anti-rabbit (Catalog# ab150061; final concentration: 1:500; Abcam, Cambridge, MA, USA) and DAPI (Catalog# ab228549; Abcam, Cambridge, MA, USA) were added, and incubated 1 h at room temperature. The sections were then washed three times with PBS, dried, and mounted, and images were collected using a confocal microscope (Nikon ECLIPSE Ti2; NIS-Elements AR 5.21.03; Nikon Instruments Inc., Tokyo, Japan).

Hep G2 cells = test: MTT cytotoxicity, Hep G2; type: cell-based, human; details: for Cell viability (MTT) relative to Vehicle: Hep G2, replicates
Description: as §3

Caco-2 cells = test: MTT cytotoxicity, Caco-2; type: cell-based, human; details: for Cell viability (MTT) relative to Vehicle: Caco-2, replicates
Description: as §3

[5] = D88 Treated 12h, site of infection, single mice, Figure 6d
[6] = D88 Treated 22h, site of infection, single mice, Figure 6d

N#Cc1ccc(NC(=O)C(F)C(=O)Nc2ccc(Oc3ccccc3)cc2)cc1 (centres unmarked) [D88]
mean ileal TNF-α level (TNF-α): 381 pg mL^−1 g^−1 tissue
reduction of MvfR binding to the pqs operon promoter ([1]; 50 µM D88, vs control): ~ 80%
PQS-mediated increase in MvfR binding ([1]; D88 50 µM + PQS 38 µM): significantly decreased
MvfR binding to the pqsA promoter (ChIP-qPCR) ([1]; PQS +): 4.271 and 2.782 and 2.485
MvfR binding to the pqsA promoter (ChIP-qPCR) ([1]; PQS −): 1.532 and 0.7796 and 1.309
mean FITC-dextran in serum (PA14 burn-site infection [2]; burn + PA14 infection, D88 24 mg kg^−1 SC x5, 22 h): 2759 ng/mL
mean FITC-dextran in serum (PA14 burn-site infection [2]; burn alone without infection, D88-treated, 22 h): 850 ng/mL
intestinal permeability status (PA14 burn-site infection [2]; mvfR mutant-infected mice treated with D88 vs no treatment or vehicle): no difference in the intestinal permeability status
bacterial dissemination to the intestinal tissues (ileum and colon) (PA14 burn-site infection [3]; burn + PA14, D88, 22 h): significantly reduced
bacterial load at the inoculation site (PA14 burn-site infection [3]; burn + infection, D88, 22 h): not affected
bacterial load at the site of infection (CFUs) (PA14 burn-site infection [3]; infected and D88 treated animals): ~1 × 10^8
ileal IL-6 level (IL-6): marked decrease
levels of HHQ, PQS, HQNO, 2-AA and DHQ at the site of infection ([4]; 12 h post-infection): strong inhibitory efficacy
levels of HHQ, PQS, HQNO, 2-AA and DHQ at the site of infection ([4]; 22 h post-infection): complete abolishment
DHQ [4, 5]: 0.0000
HQNO [4, 5]: 0.0000
2-AA [4, 6]: 0.0000
DHQ [4, 6]: 0.0000
cell viability (RAW 264.7 cells; RAW 264.7, 10-50 µM, 24 h): None of the used compound concentrations exerted any cytotoxic effect; also recorded: no significant changes in cell viability
Cell viability (MTT) relative to Vehicle (RAW 264.7 cells; 10 μM): 106.22 and 99.08 and 96.63 and 98.82 and 101.11 and 88.19
Cell viability (MTT) relative to Vehicle (RAW 264.7 cells; 20 μM): 109.67 and 80.39 and 97.97 and 112.02 and 105.97 and 95.04
Cell viability (MTT) relative to Vehicle (RAW 264.7 cells; 30 μM): 93.49 and 78.32 and 83.19 and 78.26 and 102.67 and 94.83
Cell viability (MTT) relative to Vehicle (RAW 264.7 cells; 40 μM): 110.52 and 98.03 and 98.54 and 91.97 and 90.51 and 93.01
Cell viability (MTT) relative to Vehicle (RAW 264.7 cells; 50 μM): 100.26 and 92.62 and 78.32 and 79.67 and 99.66 and 96.62
Claudin-1 immunofluorescence quantification (Supplimentary Figure 9) (claudin-1; PA14+D88 group, compare Sham, PA14+Vehicle, ΔmvfR, individual measurements): 148.508 and 162.001 and 157.541 and 137.39 and 152.028 and 182.597 and 148.327 and 116.923 and 109.707 and 109.463
claudin-1 staining fluorescence intensity (claudin-1; ileum, PA14 infected + D88, 22 h): 142.48 AUs
cell viability (Hep G2 cells; Hep G2, 10-50 µM, 24 h): None of the used compound concentrations exerted any cytotoxic effect; also recorded: no significant changes in cell viability
Cell viability (MTT) relative to Vehicle (Hep G2 cells; 10 μM): 91.32 and 107.98 and 99.70 and 117.35 and 109.09 and 100.19
Cell viability (MTT) relative to Vehicle (Hep G2 cells; 20 μM): 95.30 and 117.21 and 108.45 and 112.28 and 97.33 and 109.75
Cell viability (MTT) relative to Vehicle (Hep G2 cells; 30 μM): 92.58 and 115.65 and 108.60 and 112.37 and 92.39 and 103.33
Cell viability (MTT) relative to Vehicle (Hep G2 cells; 40 μM): 107.42 and 114.93 and 105.81 and 114.05 and 107.35 and 99.51
Cell viability (MTT) relative to Vehicle (Hep G2 cells; 50 μM): 91.19 and 110.82 and 100.96 and 118.91
cell viability (Caco-2 cells; Caco-2, 10-50 µM, 24 h): None of the used compound concentrations exerted any cytotoxic effect; also recorded: no significant changes in cell viability
Cell viability (MTT) relative to Vehicle (Caco-2 cells; 10 μM): 100.58 and 104.90 and 98.04 and 98.93 and 106.77 and 103.03
Cell viability (MTT) relative to Vehicle (Caco-2 cells; 20 μM): 88.76 and 107.49 and 114.33 and 95.92 and 103.96 and 102.97
Cell viability (MTT) relative to Vehicle (Caco-2 cells; 30 μM): 90.12 and 104.03 and 109.17 and 85.43 and 91.84 and 104.53
Cell viability (MTT) relative to Vehicle (Caco-2 cells; 40 μM): 102.40 and 93.65 and 104.99 and 92.78 and 93.27 and 104.68
Cell viability (MTT) relative to Vehicle (Caco-2 cells; 50 μM): 105.69 and 94.78 and 111.93 and 95.33 and 96.54 and 98.13
